Data taken from PubChem BioAssay (NCI).
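Method: 48-hour compound exposure of cells in 96-well plates, five concentrations, linear interpolation of endpoints. The concentration for 50% growth inhibition is given as GI50. TGI: total growth inhibition.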

How the values were obtained:
Assay in all cases: growth of human tumour cells (NCI), 48 h
786-0 renal = system: 786-0 renal
A498 renal = system: A498 renal
A549 NSCLC = system: A549 NSCLC
ACHN renal = system: ACHN renal
BT-549 breast = system: BT-549 breast
CAKI-1 renal = system: CAKI-1 renal
CCRF-CEM leukemia = system: CCRF-CEM leukemia
COLO 205 colon = system: COLO 205 colon
DU-145 prostate = system: DU-145 prostate
EKVX NSCLC = system: EKVX NSCLC
HCC-2998 colon = system: HCC-2998 colon
HCT-116 colon = system: HCT-116 colon
HCT-15 colon = system: HCT-15 colon
HL-60(TB) leukemia = system: HL-60(TB) leukemia
HOP-62 NSCLC = system: HOP-62 NSCLC
HOP-92 NSCLC = system: HOP-92 NSCLC
HS 578T breast = system: HS 578T breast
HT29 colon = system: HT29 colon
IGROV1 ovarian = system: IGROV1 ovarian
K-562 leukemia = system: K-562 leukemia
KM12 colon = system: KM12 colon
LOX IMVI melanoma = system: LOX IMVI melanoma
M14 melanoma = system: M14 melanoma
MALME-3M melanoma = system: MALME-3M melanoma
MCF7 breast = system: MCF7 breast
MDA-MB-435 = system: MDA-MB-435
MDA-MB-468 breast = system: MDA-MB-468 breast
MOLT-4 leukemia = system: MOLT-4 leukemia
NCI-H226 lung = system: NCI-H226 lung
NCI-H23 lung = system: NCI-H23 lung
NCI-H460 lung = system: NCI-H460 lung
NCI-H522 lung = system: NCI-H522 lung
NCI/ADR-RES ovarian = system: NCI/ADR-RES ovarian
OVCAR-3 ovarian = system: OVCAR-3 ovarian
OVCAR-4 ovarian = system: OVCAR-4 ovarian
OVCAR-5 ovarian = system: OVCAR-5 ovarian
OVCAR-8 ovarian = system: OVCAR-8 ovarian
PC-3 prostate = system: PC-3 prostate
RPMI-8226 leukemia = system: RPMI-8226 leukemia
RXF 393 renal = system: RXF 393 renal
SF-268 CNS = system: SF-268 CNS
SF-295 CNS = system: SF-295 CNS
SF-539 CNS = system: SF-539 CNS
SK-MEL-2 melanoma = system: SK-MEL-2 melanoma
SK-MEL-28 melanoma = system: SK-MEL-28 melanoma
SK-MEL-5 melanoma = system: SK-MEL-5 melanoma
SK-OV-3 ovarian = system: SK-OV-3 ovarian
SN12C renal = system: SN12C renal
SNB-75 CNS = system: SNB-75 CNS
SW-620 colon = system: SW-620 colon
TK-10 renal = system: TK-10 renal
U251 CNS = system: U251 CNS
UACC-257 melanoma = system: UACC-257 melanoma
UACC-62 melanoma = system: UACC-62 melanoma

In the case of C=C1CC[C@@H]2[C@]3(C)COC(c4cn[nH]c4-c4ccc(Br)cc4)O[C@@H]3CC[C@@]2(C)[C@@H]1C/C=C1/C(=O)OCC1O (stereo partly drawn), the GI50 (786-0 renal) is reported as 5.75 µM, the TGI (786-0 renal) is reported as 18.8 µM and the GI50 (A498 renal) is reported as 16.8 µM. It also gave a TGI (A498 renal) of 30.6 µM, a GI50 (A549 NSCLC) of 11.1 µM and a TGI (A549 NSCLC) of 26.4 µM. It also gave a GI50 (ACHN renal) of 2.16 µM, a TGI (ACHN renal) of 6.16 µM and a GI50 (BT-549 breast) of 2.88 µM. For the same compound, the TGI (BT-549 breast) was 12.3 µM, the GI50 (CAKI-1 renal) was 8.18 µM and the TGI (CAKI-1 renal) was 22 µM. It also gave a GI50 (CCRF-CEM leukemia) of 2.81 µM, a TGI (CCRF-CEM leukemia) of 44.2 µM and a GI50 (COLO 205 colon) of 4.45 µM. For the same compound, the TGI (COLO 205 colon) was 18.1 µM, the GI50 (DU-145 prostate) was 8.24 µM and the TGI (DU-145 prostate) was 23.6 µM. For the same compound, the GI50 (EKVX NSCLC) was 4.68 µM, the TGI (EKVX NSCLC) was 17.7 µM and the GI50 (HCC-2998 colon) was 9.11 µM. For the same compound, the TGI (HCC-2998 colon) was 21.4 µM, the GI50 (HCT-116 colon) was 1.94 µM and the TGI (HCT-116 colon) was 5.19 µM. It also gave a GI50 (HCT-15 colon) of 1.97 µM, a TGI (HCT-15 colon) of 5.3 µM and a GI50 (HL-60(TB) leukemia) of 2.3 µM. The TGI (HL-60(TB) leukemia) was 17.6 µM, the GI50 (HOP-62 NSCLC) was 18.9 µM and the TGI (HOP-62 NSCLC) was 37.3 µM. It also gave a GI50 (HOP-92 NSCLC) of 5.08 µM, a TGI (HOP-92 NSCLC) of 22.7 µM and a GI50 (HS 578T breast) of 17.7 µM. It also gave a TGI (HS 578T breast) greater than 100 µM, a GI50 (HT29 colon) of 2.8 µM and a TGI (HT29 colon) of 10.5 µM. It also gave a GI50 (IGROV1 ovarian) of 13.8 µM, a TGI (IGROV1 ovarian) of 30.9 µM and a GI50 (K-562 leukemia) of 2.24 µM. The TGI (K-562 leukemia) was 15.4 µM, the GI50 (KM12 colon) was 7.16 µM and the TGI (KM12 colon) was 29.2 µM. The GI50 (LOX IMVI melanoma) was 1.37 µM, the TGI (LOX IMVI melanoma) was 2.72 µM and the GI50 (M14 melanoma) was 3.4 µM. For the same compound, the TGI (M14 melanoma) was 16.7 µM, the GI50 (MALME-3M melanoma) was 3.98 µM and the TGI (MALME-3M melanoma) was 17.7 µM. It also gave a GI50 (MCF7 breast) of 2.13 µM, a TGI (MCF7 breast) of 10.4 µM and a GI50 (MDA-MB-435) of 3.24 µM. For the same compound, the TGI (MDA-MB-435) was 15.3 µM, the GI50 (MDA-MB-468 breast) was 2.47 µM and the TGI (MDA-MB-468 breast) was 9.41 µM. The GI50 (MOLT-4 leukemia) was 2.86 µM, the TGI (MOLT-4 leukemia) was 13.6 µM and the GI50 (NCI-H226 lung) was 1.93 µM. It also gave a TGI (NCI-H226 lung) of 4.32 µM, a GI50 (NCI-H23 lung) of 10.5 µM and a TGI (NCI-H23 lung) of 23.1 µM. It also gave a GI50 (NCI-H460 lung) of 12.6 µM, a TGI (NCI-H460 lung) of 29.7 µM and a GI50 (NCI-H522 lung) of 2.08 µM. For the same compound, the TGI (NCI-H522 lung) was 5.75 µM, the GI50 (NCI/ADR-RES ovarian) was 2.2 µM and the TGI (NCI/ADR-RES ovarian) was 6.91 µM. The GI50 (OVCAR-3 ovarian) was 2.08 µM, the TGI (OVCAR-3 ovarian) was 4.49 µM and the GI50 (OVCAR-4 ovarian) was 5.02 µM. It also gave a TGI (OVCAR-4 ovarian) of 32.8 µM, a GI50 (OVCAR-5 ovarian) of 10 µM and a TGI (OVCAR-5 ovarian) of 23.1 µM. It also gave a GI50 (OVCAR-8 ovarian) of 3.24 µM, a TGI (OVCAR-8 ovarian) of 61.9 µM and a GI50 (PC-3 prostate) of 4.08 µM. The TGI (PC-3 prostate) was 30.3 µM, the GI50 (RPMI-8226 leukemia) was 2.56 µM and the TGI (RPMI-8226 leukemia) was greater than 100 µM. It also gave a GI50 (RXF 393 renal) of 1.9 µM, a TGI (RXF 393 renal) of 4.42 µM and a GI50 (SF-268 CNS) of 16.5 µM. For the same compound, the TGI (SF-268 CNS) was 42.3 µM, the GI50 (SF-295 CNS) was 12.1 µM and the TGI (SF-295 CNS) was 25.4 µM. The GI50 (SF-539 CNS) was 2.2 µM, the TGI (SF-539 CNS) was 5.67 µM and the GI50 (SK-MEL-2 melanoma) was 5.85 µM. For the same compound, the TGI (SK-MEL-2 melanoma) was 20.8 µM, the GI50 (SK-MEL-28 melanoma) was 2.13 µM and the TGI (SK-MEL-28 melanoma) was 4.95 µM. It also gave a GI50 (SK-MEL-5 melanoma) of 10.4 µM, a TGI (SK-MEL-5 melanoma) of 23.4 µM and a GI50 (SK-OV-3 ovarian) of 16.8 µM. It also gave a TGI (SK-OV-3 ovarian) of 32.2 µM, a GI50 (SN12C renal) of 7.51 µM and a TGI (SN12C renal) of 21.5 µM. The GI50 (SNB-75 CNS) was 7.04 µM, the TGI (SNB-75 CNS) was 25.7 µM and the GI50 (SW-620 colon) was 2.33 µM. It also gave a TGI (SW-620 colon) of 6.36 µM, a GI50 (TK-10 renal) of 18.4 µM and a TGI (TK-10 renal) of 33.4 µM. The GI50 (U251 CNS) was 6.83 µM, the TGI (U251 CNS) was 19.9 µM and the GI50 (UACC-257 melanoma) was 11.8 µM. The TGI (UACC-257 melanoma) was 27.5 µM, the GI50 (UACC-62 melanoma) was 3.44 µM and the TGI (UACC-62 melanoma) was 15.8 µM.
